Reference: PubChem BioAssay (NCI)
Where “and” joins values, the source holds several entries; their conditions need not be identical. Identical values can stand only once.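 Values below derive from 48-hour exposures of cells grown in 96-well plates, with endpoints linearly interpolated between the two concentrations bracketing the appropriate inhibition level. At the GI50, growth is halved. The concentration for full growth arrest is given as TGI.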

Columns and labels:
Experiment in all cases: growth of human tumour cells (NCI), 48 h
[1] = tested on: HOP-62 NSCLC
[2] = tested on: KM12 colon
[3] = tested on: MCF7 breast
[4] = tested on: NCI-H226 lung
[5] = tested on: SF-295 CNS
[6] = tested on: SK-MEL-2 melanoma
[7] = tested on: SNB-19 CNS
[8] = tested on: SW-620 colon
[9] = tested on: UACC-257 melanoma
[10] = tested on: UACC-62 melanoma

`C#C[C@]1(O)CC[C@H]2[C@@H]3CC=C4c5nc(Nc6ccccn6)sc5CC[C@]4(C)[C@H]3CC[C@@]21C` was tested, and the GI50 [1] was 1.11 µM, the TGI [1] was 2.95 µM and the GI50 [2] was 1.7 µM. It also gave a TGI [2] of 4.5 µM, a GI50 [3] of 0.968 µM and a TGI [3] of 3.73 µM. For the same molecule, the GI50 [4] was 1.51 µM, the TGI [4] was 3.91 µM and the GI50 [5] was 0.218 µM. For the same molecule, the TGI [5] was 0.489 µM, the GI50 [6] was 0.603 µM and the TGI [6] was 3.08 µM. It also gave a GI50 [7] of 1.37 µM, a TGI [7] of 5.59 µM and a GI50 [8] of 1.24 µM. For the same molecule, the TGI [8] was 2.91 µM, the GI50 [9] was 0.778 µM and the TGI [9] was 2.55 µM. For the same molecule, the GI50 [10] was 1.15 µM and the TGI [10] was 2.68 µM.

In the case of `CC1(C)CCC(C)(C)c2cc(C(=O)Nc3ccc(C(=O)O)cc3)ccc21`, the TGI [1] is reported as 37.5 µM, the TGI [2] is reported as > 61.4 µM and the TGI [3] is reported as > 100 µM. For the same molecule, the TGI [4] was > 65.5 µM, the TGI [5] was > 54.7 µM and the TGI [6] was 44.7 µM. The TGI [7] was > 66.4 µM, the TGI [8] was > 100 µM and the TGI [9] was > 67.7 µM. For the same molecule, the TGI [10] was 41.2 µM.

`CC1(C)N=C(N)N=C(N)N1c1ccc(CCc2ccccc2)c(Cl)c1` showed a GI50 [1] of 0.268 µM, a TGI [1] of 12.4 µM and a GI50 [2] of 0.0994 µM. The TGI [2] was 7.61 µM, the GI50 [3] was 0.058 µM and the TGI [3] was 13 µM. For the same molecule, the GI50 [4] was 0.521 µM, the TGI [4] was 17.1 µM and the GI50 [5] was 0.0529 µM. It also gave a TGI [5] of 11.3 µM, a GI50 [6] of 1.01 µM and a TGI [6] of 17.5 µM. For the same molecule, the GI50 [7] was 0.172 µM, the TGI [7] was 15.4 µM and the GI50 [8] was 0.0388 µM. For the same molecule, the TGI [8] was 13.8 µM, the GI50 [9] was 0.392 µM and the TGI [9] was 13.1 µM. The GI50 [10] was 0.0572 µM and the TGI [10] was 11.7 µM.

`Fc1cccc(COc2ccc(Nc3ncnc4sc(-c5ccco5)cc34)cc2Cl)c1` was tested, and the GI50 [1] was > 25 µM, the TGI [1] was > 25 µM and the GI50 [2] was > 25 µM. The TGI [2] was > 25 µM, the GI50 [3] was > 25 µM and the TGI [3] was > 25 µM. For the same molecule, the GI50 [4] was > 25 µM, the TGI [4] was > 25 µM and the GI50 [5] was > 25 µM. The TGI [5] was > 25 µM, the GI50 [6] was > 25 µM and the TGI [6] was > 25 µM. The GI50 [7] was > 25 µM, the TGI [7] was > 25 µM and the GI50 [8] was > 25 µM. The TGI [8] was > 25 µM, the GI50 [9] was > 25 µM and the TGI [9] was > 25 µM. The GI50 [10] was > 25 µM and the TGI [10] was > 25 µM.

In the case of `COc1ccc(C(=O)N2c3ccccc3Sc3ccccc32)c(F)c1`, the GI50 [1] is reported as 0.968 µM, the TGI [1] is reported as > 100 µM and the GI50 [2] is reported as 0.489 µM. For the same molecule, the TGI [2] was > 100 µM, the GI50 [3] was 0.405 µM and the TGI [3] was > 100 µM. The GI50 [4] was 2.35 µM, the TGI [4] was > 100 µM and the GI50 [5] was 0.395 µM. For the same molecule, the TGI [5] was > 100 µM, the GI50 [6] was 0.531 µM and the TGI [6] was > 100 µM. For the same molecule, the GI50 [7] was 0.571 µM, the TGI [7] was > 100 µM and the GI50 [8] was 0.458 µM. For the same molecule, the TGI [8] was > 100 µM, the GI50 [9] was > 100 µM and the TGI [9] was > 100 µM. For the same molecule, the GI50 [10] was 0.382 µM and the TGI [10] was > 100 µM.

For `O=c1oc2ccccc2c(O)c1C=NC(=S)c1ccncc1`, the TGI [1] was > 100 µM, the TGI [2] was > 100 µM and the TGI [3] was > 100 µM. For the same molecule, the TGI [4] was > 100 µM, the TGI [5] was > 100 µM and the TGI [6] was > 100 µM. The TGI [7] was > 100 µM, the TGI [8] was > 100 µM and the TGI [9] was > 100 µM. For the same molecule, the TGI [10] was > 100 µM.

For `Nc1cc2c3c(cccc3c1)NC2=O`, the TGI [1] was > 100 µM, the TGI [2] was > 100 µM and the TGI [3] was > 100 µM. The TGI [4] was > 100 µM, the TGI [5] was > 100 µM and the TGI [6] was > 100 µM. The TGI [7] was > 100 µM, the TGI [8] was > 100 µM and the TGI [9] was > 100 µM. For the same molecule, the TGI [10] was > 100 µM.

Work on `C[C@]12CC[C@@H]3c4ccc(O)c([N+](=O)[O-])c4CC[C@H]3[C@@H]1CC[C@@H]2NS(=O)(=O)c1ccc(C(F)(F)F)cc1` yielded a GI50 [1] of 1.83 µM, a TGI [1] of 3.58 µM and a GI50 [2] of 1.76 µM. It also gave a TGI [2] of 3.51 µM, a GI50 [3] of 1.91 µM and a TGI [3] of 4.23 µM. The GI50 [4] was 1.62 µM, the TGI [4] was 3.78 µM and the GI50 [5] was 2.96 µM. For the same molecule, the TGI [5] was 10.6 µM, the GI50 [6] was 2.1 µM and the TGI [6] was 4.18 µM. It also gave a GI50 [7] of 2.79 µM, a TGI [7] of 11.2 µM and a GI50 [8] of 2.04 µM. The TGI [8] was 4.78 µM, the GI50 [9] was 1.87 µM and the TGI [9] was 4.74 µM. For the same molecule, the GI50 [10] was 1.34 µM and the TGI [10] was 2.78 µM.

For `Cc1cccc(NC(=O)c2sc3nc4c(cc3c2N)CCCC4)c1C`, the GI50 [1] was 0.537 µM, the TGI [1] was > 100 µM and the GI50 [2] was 0.342 µM. The TGI [2] was > 100 µM, the GI50 [3] was 0.339 µM and the TGI [3] was > 100 µM. The GI50 [4] was 1.44 µM, the TGI [4] was > 25.1 µM and the GI50 [5] was 0.516 µM. For the same molecule, the TGI [5] was > 100 µM, the GI50 [6] was 0.515 µM and the TGI [6] was > 100 µM. For the same molecule, the GI50 [7] was 0.508 µM, the TGI [7] was > 100 µM and the GI50 [8] was 0.369 µM. For the same molecule, the TGI [8] was > 100 µM, the GI50 [9] was > 100 µM and the TGI [9] was > 100 µM. The GI50 [10] was 0.533 µM and the TGI [10] was > 100 µM.

In the case of `C/C(=N\O)c1ccc(Nc2cc(-n3nnc4ccccc43)nc3ccccc23)cc1`, the GI50 [1] is reported as 6.14 µM, the TGI [1] is reported as 21.4 µM and the GI50 [2] is reported as 2.98 µM. For the same molecule, the TGI [2] was 10.9 µM, the GI50 [3] was 5.24 µM and the TGI [3] was 14.4 µM. It also gave a GI50 [4] of 7.88 µM, a TGI [4] of 30.3 µM and a GI50 [5] of 10.3 µM. The TGI [5] was > 100 µM, the GI50 [6] was 15.6 µM and the TGI [6] was 47.6 µM. For the same molecule, the GI50 [7] was 19.9 µM, the TGI [7] was > 90.7 µM and the GI50 [8] was 11.6 µM. For the same molecule, the TGI [8] was 39.4 µM, the GI50 [9] was 17.5 µM and the TGI [9] was > 53.7 µM. It also gave a GI50 [10] of 6.9 µM and a TGI [10] of 19 µM.

With `CC1(C)O[C@H]2OC3CCC(=O)CC3(O)[C@H]2O1` (stereo not given in full) the TGI [1] was > 100 µM, the TGI [2] was > 100 µM and the TGI [3] was > 100 µM. For the same molecule, the TGI [4] was > 100 µM, the TGI [5] was > 100 µM and the TGI [6] was > 100 µM. For the same molecule, the TGI [7] was > 100 µM, the TGI [8] was > 100 µM and the TGI [9] was > 100 µM. The TGI [10] was > 100 µM.

With `O=C(Nc1ccc(OC(F)(F)F)cc1)c1sccc1NCc1ccnc2ccccc12` the GI50 [1] was 9.55 µM, the TGI [1] was > 100 µM and the GI50 [2] was 3.85 µM. For the same molecule, the TGI [2] was > 56.9 µM, the GI50 [3] was 4.19 µM and the TGI [3] was 36 µM. The GI50 [4] was 2.89 µM, the TGI [4] was > 90.6 µM and the GI50 [5] was 2.63 µM. For the same molecule, the TGI [5] was > 45.7 µM, the GI50 [6] was 1.28 µM and the TGI [6] was 4.3 µM. The GI50 [7] was 13 µM, the TGI [7] was > 100 µM and the GI50 [8] was 5.03 µM. The TGI [8] was > 100 µM, the GI50 [9] was 3.62 µM and the TGI [9] was 52.5 µM. For the same molecule, the GI50 [10] was 1.89 µM and the TGI [10] was 14.9 µM.

For `CSc1ccc(/C=C2\CNC/C(=C\c3ccc(SC)cc3)C2=O)cc1`, the GI50 [1] was 14 µM and 50.2 µg/mL, the TGI [1] was 59.3 µM and 131 µg/mL and the GI50 [2] was 150 µg/mL. The TGI [2] was > 371 µM and 150 µg/mL, the GI50 [3] was > 371 µM and 58.8 µg/mL and the TGI [3] was > 371 µM and 150 µg/mL. The GI50 [4] was 99.7 µg/mL, the TGI [4] was 104 µM and 150 µg/mL and the GI50 [5] was 9.25 µg/mL. For the same molecule, the TGI [5] was > 150 µM and 33.5 µg/mL, the GI50 [6] was 150 µg/mL and the TGI [6] was > 371 µM and 150 µg/mL. The GI50 [7] was 50.9 µM and 23.9 µg/mL, the TGI [7] was > 127 µM and 89.4 µg/mL and the GI50 [8] was 150 µg/mL. The TGI [8] was > 371 µM and 150 µg/mL, the GI50 [9] was 150 µg/mL and the TGI [9] was > 371 µM and 150 µg/mL. The GI50 [10] was 93.5 µg/mL and the TGI [10] was > 214 µM and 150 µg/mL.
